According to US20100330136A1, “USE OF CATIONIC SURFACTANTS FOR THE PROTECTION AGANST TOOTH EROSION” (priority 2008, published 2010):

Legend:
[1] = rats; cited from earlier work
S. sobrinus = assay: Antimicrobial activity on the biofilm (Zurich Biofilm Model); format: cell-based, Streptococcus sobrinus; conditions: 0.5% LAE; 6 exposures of 1 minute in two days, evaluated 16 h after last exposure; control 8.6
Description: (§1) The biofilm model is a reliable tool to predict the in vivo efficacy of antimicrobials, and de- and remineralization of enamel exposed to biofilms in vitro. The experiments were performed with the Zurich Biofilm Model. Biofilms are formed either on hydroxyapatite (HA) or bovine enamel disks that have preconditioned in pooled, unstimulated saliva. Biofilms are formed in 24-well cell culture dishes incubated anaerobically at 37° C. The detailed description to the preparation of this model was published by Guggenheim et al., 2001, J. Dent. Res. 80 (1) 363-370. The microbial composition of this biofilm was constituted by five bacterial species and a yeast. More specifically, they are as follows: Streptococcus oralis, Streptococcus sobrinus, Actinomyces naeslundii, Veillonella dispar and Fusobacterium nucleatum and the yeast studied was Candida albicans. The bacteria chosen for incorporation into this biofilm model were five species encountered in supragingival plaque.
(§2) Most of the biofilm models are based on a continuous flow culture system which means that biofilms are subjected to shear or detachment forces. In contrast, the biofilm model used in these experiments was based on a batch culture system that was subjected only intermittently to such forces in the course of dip-washing or gentle swirling. […]
(§3) The results of the following table were expressed as log10 of CFU: […]

[2] = system: Klebsiella pneumoniae var pneumoniae CECT 178; conditions: Gram − bacteria; cited from earlier work
[3] = Tooth coating effect: surface energy from contact angles of sessile drops (Glantz method); format: physicochemical; conditions: for Surface Energy: enamel without LAE ca 23 dyn/cm
Excerpt: The tooth coating effect by LAE was validated by the methods described by Glantz PO (1981. “Adhesion in the oral cavity” In Fundamentals and application of surface interactions in the oral cavity (ed. S. A. Leach), pp 49-64. Information Retrieval Ltd. London). The method measures contact angles of sessile drops from liquids with a range of polarities to determine the polar component of the surface energy (gamma p) and dispersive component on teeth coated with LAE. Without LAE the surface energy was 23 dyn/cm. […] In the presence of LAE the surface energy was reduced to a lowest level of 11.5 dyn/cm. This coating provides a shielding effect on teeth against erosion caused by acids from food and beverages.
The surface energy of enamel is ca 23 dyn/cm. This surface energy is reduced by the presence of LAE to the following values: […]

[4] = system: Escherichia coli ATCC 8739; conditions: Gram − bacteria; cited from earlier work
[5] = system: microorganisms in biofilm (five bacterial species and a yeast); assay: Re-growth of biofilms after LAE exposure (Zurich Biofilm Model); format: cell-based; conditions: 1% LAE
Description: as §1
Most of the biofilm models are based on a continuous flow culture system which means that biofilms are subjected to shear or detachment forces. In contrast, the biofilm model used in these experiments was based on a batch culture system that was subjected only intermittently to such forces in the course of dip-washing or gentle swirling. Thus, this biofilm model allows for controlled substance exposure times resembling those encountered during mouth rinsing.
The biofilms were exposed to LAE only 6 times during 1 minute in two subsequent days. The evaluation of the LAE effects was studied 16 h after the last exposure.
This experiment compared the re-growth of microorganisms in a control biofilm against a biofilm exposed to LAE. The content of microorganisms in each biofilm was studied along the time. For each point of analysis the growth of microorganisms was studied before and after a dip in a saline solution for control biofilms and in LAE for the other biofilms after each feeding.
The results are expressed as log10 of CFU: […]

[6] = system: Salmonella typhimurium ATCC16028; conditions: Gram − bacteria; cited from earlier work
[7] = system: Leuconostoc mesenteroides CETC 912; conditions: Gram + bacteria; cited from earlier work
[8] = system: Enterobacter aerogenes CECT 689; conditions: Gram − bacteria; cited from earlier work
[9] = system: Penicillium funiculosum CECT 2914; conditions: Fungi; cited from earlier work
V. dispar = assay: Antimicrobial activity on the biofilm (Zurich Biofilm Model); format: cell-based, Veillonella dispar; conditions: 0.5% LAE; 6 exposures of 1 minute in two days, evaluated 16 h after last exposure; control 8.1
Description: as §1, §2, §3

[10] = system: Citrobacter freundii ATCC 22636; conditions: Gram − bacteria; cited from earlier work
[11] = system: Aspergillus niger ATCC14604; conditions: Fungi; cited from earlier work
[12] = system: Rhodotorula rubra CECT 1158; conditions: Yeast; cited from earlier work
[13] = system: Pseudomonas aeruginosa ATCC 9027; conditions: Gram − bacteria; cited from earlier work
[14] = system: Bacillus subtilis ATCC 6633; conditions: Gram + bacteria; cited from earlier work
[15] = system: Chaetonium globosum ATCC 6205; conditions: Fungi; cited from earlier work
[16] = system: Gliocadium virens ATCC 4645; conditions: Fungi; cited from earlier work
[17] = system: Proteus mirabilis CECT 170; conditions: Gram − bacteria; cited from earlier work
[18] = system: Aureobasidium pullulans ATCC 9348; conditions: Fungi; cited from earlier work
Escherichia coli 0157H7 = conditions: Gram − bacteria; cited from earlier work
[19] = system: Staphylococcus aureus ATCC 6538; conditions: Gram + bacteria; cited from earlier work
[20] = system: Serratia marcenses CECT 274; conditions: Gram − bacteria; cited from earlier work
[21] = system: Listeria monocytogenes ATCC 7644; conditions: Gram + bacteria; cited from earlier work
S. oralis = assay: Antimicrobial activity on the biofilm (Zurich Biofilm Model); format: cell-based, Streptococcus oralis; conditions: 0.5% LAE; 6 exposures of 1 minute in two days, evaluated 16 h after last exposure; control 9.0
Description: as §1, §2, §3

[22] = system: Clostridium perfringens ATCC 77454; conditions: Gram + bacteria; cited from earlier work
A. naeslundii = assay: Antimicrobial activity on the biofilm (Zurich Biofilm Model); format: cell-based, Actinomyces naeslundii; conditions: 0.5% LAE; 6 exposures of 1 minute in two days, evaluated 16 h after last exposure; control 8.3
Description: as §1, §2, §3

[23] = system: Micrococcus luteus ATCC 9631; conditions: Gram + bacteria; cited from earlier work
[24] = system: Saccharomyces cerevisiae ATCC 9763; conditions: Yeast; cited from earlier work
[25] = system: Streptococcus mutans ATCC 25175; conditions: Gram + bacteria; cited from earlier work
[26] = cited from earlier work
[27] = system: Mycobacterium phlei ATCC 41423; conditions: listed under Gram − bacteria; cited from earlier work
C. albicans = assay: Antimicrobial activity on the biofilm (Zurich Biofilm Model); format: cell-based, Candida albicans; conditions: 0.5% LAE; 6 exposures of 1 minute in two days, evaluated 16 h after last exposure; control 5.1
Description: as §1, §2, §3

[28] = system: Bacillus cereus var mycoide ATCC 11778; conditions: Gram + bacteria; cited from earlier work
[29] = system: Penicillium chrysogenum CECT 2802; conditions: Fungi; cited from earlier work
[30] = system: Candida albicans ATCC 10231; conditions: Yeast; cited from earlier work
[31] = system: Alcaligenes faecalis ATCC 8750; conditions: Gram − bacteria; cited from earlier work
F. nucleatum = assay: Antimicrobial activity on the biofilm (Zurich Biofilm Model); format: cell-based, Fusobacterium nucleatum; conditions: 0.5% LAE; 6 exposures of 1 minute in two days, evaluated 16 h after last exposure; control 5.1
Description: as §1, §2, §3

[32] = system: Bordetella bronchiseptica ATCC 4617; conditions: Gram − bacteria; cited from earlier work
[33] = system: Arthrobacter oxydans ATCC 8010; conditions: Gram + bacteria; cited from earlier work
[34] = system: Lactobacillus delbrueckii ssp lactis CECT 372; conditions: Gram + bacteria; cited from earlier work
[35] = Effect of LAE on acids generated from sugar rinses: pH on tooth plaque interfaces; format: in vivo, Humans; conditions: for intraoral pH after 10% sucrose rinse: 0.16% LAE, humans
Excerpt: It has been established, that beverages and food containing sugars promote tooth erosion. The American Dental Association (ADA) food and nutrition programs recommend a procedure for evaluating pH in the mouth after ingestion of food and beverages. This is summarized in the FDA guidelines published in Federal Register 43433, vol 61, No. 165, 1996. The procedure involved measuring pH on tooth plaque interfaces after giving the subjects (6 subjects per group) 10% sucrose rinse in the presence or absence of treatment with 0.16% LAE versus placebo solution containing flavor, sweetener, plasticizer (components of chewing gum) to assess their acid neutralizing effects. […] Whereas rinsing with LAE maintains a pH of 5.4±0.3 which is above the danger zone maintained for 3 and 7 days of continuous monitoring. This validates that LAE not only coats the surface of teeth but maintains a healthy pH around teeth to prevent erosion.
Another effect produced by LAE is the pH neutralization. Upon hydrolysis LAE forms arginine which is a natural pH neutralizer in human saliva. The following table reports the intraoral pH with LAE versus a placebo from 0 to 7 days after 10% sucrose rinse: […]

CCCCCCCCCCCC(=O)N[C@@H](CCCN=C(N)N)C(=O)OCC.Cl [LAE, ethyl ester of the lauramide of the arginine monohydrochloride]
absorption and metabolism [1]: fast absorption and metabolisation into naturally-occurring amino acids and the fatty acid lauric acid
log10 of CFU in biofilm (S. sobrinus): 6.1 log10 of CFU
M.I.C. [2]: 32 ppm
Surface Energy ([3]; [LAE] 0.00001 %): 21.5 dyn/cm
Surface Energy ([3]; [LAE] 0.001 %): 16.5 dyn/cm
Surface Energy ([3]; [LAE] 0.01 %): 11.5 dyn/cm
Surface Energy ([3]; [LAE] 0.1 %): 14 dyn/cm
Surface Energy ([3]; [LAE] 1 %): 12 dyn/cm
Surface energy, lowest level in the presence of LAE ([3]; lowest level, without LAE 23 dyn/cm): 11.5 dyn/cm
M.I.C. [4]: 32 ppm
log10 of CFU, biofilm re-growth ([5]; 16.5 h, After 1 dip, control 7.2): 3.5 log10 of CFU
log10 of CFU, biofilm re-growth ([5]; 16.5 h, Before 1 dip, control 7.1): 7.1 log10 of CFU
log10 of CFU, biofilm re-growth ([5]; 24.5 h, After 3 dip, control 7.4): 2.2 log10 of CFU
log10 of CFU, biofilm re-growth ([5]; 24.5 h, Before 3 dip, control 8.1): 1.4 log10 of CFU
log10 of CFU, biofilm re-growth ([5]; 40.5 h, After 4 dip, control 8.1): 1.2 log10 of CFU
log10 of CFU, biofilm re-growth ([5]; 40.5 h, Before 4 dip, control 8.1): 5.9 log10 of CFU
log10 of CFU, biofilm re-growth ([5]; 48.5 h, After 6 dip, control 8.4): 1.2 log10 of CFU
log10 of CFU, biofilm re-growth ([5]; 48.5 h, Before 6 dip, control 8.5): 3.2 log10 of CFU
log10 of CFU, biofilm re-growth ([5]; 64.5 h, Endpoint, control 9.0): 4.3 log10 of CFU
M.I.C. [6]: 32 ppm
M.I.C. [7]: 32 ppm
M.I.C. [8]: 32 ppm
M.I.C. [9]: 16 ppm
log10 of CFU in biofilm (V. dispar): 5.0 log10 of CFU
M.I.C. [10]: 64 ppm
M.I.C. [11]: 32 ppm
M.I.C. [12]: 16 ppm
M.I.C. [13]: 64 ppm
M.I.C. [14]: 16 ppm
M.I.C. [15]: 16 ppm
M.I.C. [16]: 32 ppm
M.I.C. [17]: 32 ppm
M.I.C. [18]: 16 ppm
M.I.C. (Escherichia coli 0157H7): 20 ppm
M.I.C. [19]: 32 ppm
M.I.C. [20]: 32 ppm
M.I.C. [21]: 10 ppm
log10 of CFU in biofilm (S. oralis): 6.1 log10 of CFU
M.I.C. [22]: 16 ppm
log10 of CFU in biofilm (A. naeslundii): 2.5 log10 of CFU
M.I.C. [23]: 128 ppm
M.I.C. [24]: 32 ppm
M.I.C. [25]: 64 ppm
tolerance and toxicity in practical use ([26]; human beings): well tolerated and to display a very low toxicity to human beings
toxicity ([26]; toxicological studies, animals and humans): completely harmless to animals and humans
M.I.C. [27]: 2 ppm
log10 of CFU in biofilm (C. albicans): 2.1 log10 of CFU
M.I.C. [28]: 32 ppm
M.I.C. [29]: 128 ppm
M.I.C. [30]: 16 ppm
M.I.C. [31]: 64 ppm
log10 of CFU in biofilm (F. nucleatum): 2.1 log10 of CFU
M.I.C. [32]: 128 ppm
M.I.C. [33]: 64 ppm
M.I.C. [34]: 16 ppm
intraoral pH after 10% sucrose rinse ([35]; Day 0, placebo 6): 6
intraoral pH after 10% sucrose rinse ([35]; Day 3, placebo 4.3): 5.3
intraoral pH after 10% sucrose rinse ([35]; Day 7, placebo 4.3): 5.2
pH of the tooth interface after 10% sucrose rinse ([35]; maintained for 3 and 7 days of continuous monitoring, 0.16% LAE rinse, placebo 4.3±0.2, danger zone below pH 5): 5.4±0.3
